Drawing on PubChem BioAssay (NCI), this text covers GI50 and TGI for 13 compounds.

Several values for one entry are separate records, joined by “and”; a condition that tells them apart may be missing. Equal values may be shown once.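 These data come from cells grown in 96-well plates and exposed to compound for 48 hours at five concentrations. GI50: concentration for 50% inhibition of growth. TGI is the concentration that stops growth completely.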 Bounds are passed on as bounds.

Some test systems named below: SW-620 colon; NCI-H23 lung; HT29 colon; OVCAR-4 ovarian; HCC-2998 colon; COLO 205 colon; UACC-257 melanoma; NCI-H460 lung; U251 CNS; CCRF-CEM leukemia.
Assay in all cases: NCI tumour cell line growth inhibition, 48 h

Consider `COc1ccc(SC2c3cc(OC)c(OC)cc3Oc3nc(N)c(C#N)c(N)c32)cc1` (stereo not drawn), for which the GI50 was 1.24 µM with SW-620 colon; 1.45 µM with NCI-H23 lung; 2.16 µM in the assay on HT29 colon; 1.33 µM in the assay on OVCAR-4 ovarian; 1.72 µM in the assay on HCC-2998 colon; 1.29 µM in the assay with COLO 205 colon. In addition, the GI50 in the assay on UACC-257 melanoma is 1.87 µM; with NCI-H460 lung it was 1.66 µM; in the assay with U251 CNS, 0.954 µM. Moreover, the TGI was determined as 3.2 µM in the assay on SW-620 colon; 3.01 µM with NCI-H23 lung; 5.04 µM in the assay on HT29 colon; 2.73 µM with OVCAR-4 ovarian; 3.12 µM with HCC-2998 colon; 2.65 µM with COLO 205 colon. Besides, the TGI in the assay with UACC-257 melanoma worked out at 3.32 µM; with NCI-H460 lung, 4.38 µM; in the assay on U251 CNS, 2.18 µM.

Regarding `CC(=O)Oc1ccc(OC(C)=O)c2ccccc12`, the GI50 is 13.8 µM in the assay on SW-620 colon; 12.7 µM in the assay with NCI-H23 lung; 34.6 µM in the assay with HT29 colon; 1.71 µM in the assay with OVCAR-4 ovarian; 17.5 µM with HCC-2998 colon; 15 µM with COLO 205 colon. Besides, the values for the GI50 in the assay on UACC-257 melanoma, in the assay on NCI-H460 lung and in the assay on U251 CNS were 3.95 µM, 29.1 µM and 13.8 µM, respectively. Further, the TGI is 33.2 µM in the assay on SW-620 colon; 27.5 µM in the assay with NCI-H23 lung; > 100 µM in the assay with HT29 colon; 3.1 µM in the assay on OVCAR-4 ovarian; 31.7 µM in the assay with HCC-2998 colon; 28.2 µM in the assay on COLO 205 colon. The values for the TGI in the assay on UACC-257 melanoma, in the assay on NCI-H460 lung and in the assay on U251 CNS were 13.8 µM, > 100 µM and 27.2 µM, respectively.

Turning to `O=NC1c2cccc3cccc(c23)C1N=O` (stereo not drawn), the TGI stood at 12.7 µM with SW-620 colon; 32.3 µM with NCI-H23 lung; 23.7 µM in the assay on HT29 colon; 3.56 µM with OVCAR-4 ovarian; 17.2 µM in the assay on COLO 205 colon; 27.5 µM with UACC-257 melanoma. The TGI in the assay with CCRF-CEM leukemia came to 4.25 µM; in the assay on NCI-H460 lung, 17.5 µM; in the assay with U251 CNS, 28.1 µM.

On to `CC1(O)C=CC2CCC1C2O` (stereo not drawn), for which the TGI in the assay with NCI-H23 lung was > 100 µM; in the assay with HT29 colon it was > 100 µM; with OVCAR-4 ovarian it was > 100 µM; with COLO 205 colon it was 75.7 µM; in the assay on UACC-257 melanoma, > 100 µM; in the assay on CCRF-CEM leukemia it was > 100 µM. The TGI in the assay with NCI-H460 lung and in the assay with U251 CNS was > 100 µM in each case.

With `Nc1[nH]c(=O)ncc1F`, the TGI in the assay on SW-620 colon, in the assay with NCI-H23 lung, in the assay on HT29 colon, in the assay with OVCAR-4 ovarian, with HCC-2998 colon and with COLO 205 colon was > 100 µM throughout. Besides, the TGI in the assay on UACC-257 melanoma, in the assay with NCI-H460 lung and in the assay with U251 CNS was > 100 µM throughout.

Take `CCOC(=O)C(C)(C)Oc1ccc2c(=O)cc(-c3ccccc3)oc2c1`: the TGI with SW-620 colon is 48.5 µM; in the assay with NCI-H23 lung it was 34.9 µM; with HCC-2998 colon, > 100 µM; in the assay with COLO 205 colon it was 36.8 µM; in the assay with UACC-257 melanoma, 31.2 µM; in the assay with CCRF-CEM leukemia, 43.6 µM. The TGI in the assay with NCI-H460 lung is > 100 µM; in the assay with U251 CNS it was 44.9 µM.

Turning to `O=[N+]([O-])c1cccc([N+](=O)[O-])c1S(=O)(=O)c1ccccc1`, the TGI with SW-620 colon was 5.9 µM; with NCI-H23 lung it was 50.7 µM; in the assay with HT29 colon, 36.2 µM; with COLO 205 colon, 19.4 µM; with UACC-257 melanoma, 28.8 µM; with NCI-H460 lung, 46.7 µM. The TGI in the assay on U251 CNS came to 23 µM.

As for `C=C(CN1CCN(c2ccccc2OC)CC1)c1ccc(C(=O)Nc2ccccc2N)cc1`, the GI50 in the assay on SW-620 colon was 2.1 µM; in the assay with NCI-H23 lung it was 0.447 µM; in the assay on OVCAR-4 ovarian it was 3.2 µM; in the assay with HCC-2998 colon, 0.27 µM; in the assay with COLO 205 colon, 8.31 µM; in the assay on NCI-H460 lung it was 17.5 µM. Moreover, in the assay on U251 CNS, the GI50 was 1.7 µM. For the same compound, the TGI in the assay with SW-620 colon is > 50 µM; in the assay on NCI-H23 lung, 3.24 µM; in the assay on OVCAR-4 ovarian, 23.6 µM; in the assay on HCC-2998 colon it was 0.452 µM; in the assay on COLO 205 colon it was 37.2 µM; in the assay with NCI-H460 lung it was > 50 µM. The same compound came in with a TGI in the assay on U251 CNS of 11.1 µM.

On to `O=c1[nH]cc(CS(=O)(=O)Cc2c[nH]c(=O)[nH]c2=O)c(=O)[nH]1`, for which the TGI in the assay with SW-620 colon, with NCI-H23 lung, in the assay on HT29 colon, with OVCAR-4 ovarian, in the assay with COLO 205 colon and in the assay with UACC-257 melanoma was > 100 µM each time. Also, the TGI with NCI-H460 lung and in the assay on U251 CNS was > 100 µM each time.

As for `O=C(N/N=C(/c1nc2ccc(Cl)cc2[nH]c1=O)C(O)c1ccc(Cl)cc1Cl)c1ccncc1` (stereo not drawn), the TGI in the assay on SW-620 colon, in the assay with NCI-H23 lung, in the assay with HT29 colon, in the assay with HCC-2998 colon, in the assay on COLO 205 colon and in the assay with UACC-257 melanoma was > 100 µM each time. The TGI with CCRF-CEM leukemia, with NCI-H460 lung and in the assay with U251 CNS was > 100 µM each time.

Turning to `COC(=O)/C=C/C(=O)C1C(C(=O)OC)C2(C(=O)OC)CCC1(C(=O)OC)N2` (stereo not drawn), the TGI in the assay with NCI-H23 lung, in the assay on HT29 colon, in the assay on OVCAR-4 ovarian, with HCC-2998 colon, in the assay on COLO 205 colon and in the assay on U251 CNS was > 100 µM throughout.

For `CCC1C(C)c2c([nH]c3ccccc23)C2C(=O)N(c3ccccc3)C(=O)C21` (stereo not drawn), the TGI in the assay with SW-620 colon was 35.9 µM; in the assay with NCI-H23 lung it was 41.8 µM; in the assay with HT29 colon, 28.2 µM; in the assay with OVCAR-4 ovarian it was 38 µM; in the assay on HCC-2998 colon it was 28.9 µM; with COLO 205 colon it was 30.7 µM. Also, the TGI with CCRF-CEM leukemia was 71.9 µM; with NCI-H460 lung, 28.2 µM; in the assay with U251 CNS it was 29.3 µM.

Regarding `Cc1c[nH]c2c1C13CC1CN(C(=O)c1cc4cc(NC(=O)c5cc6ccccc6o5)ccc4[nH]1)C3=CC2=O` (stereo not drawn), the GI50 in the assay with SW-620 colon, with NCI-H23 lung, in the assay with HT29 colon, with OVCAR-4 ovarian, in the assay with HCC-2998 colon and with CCRF-CEM leukemia was > 1.17 ng/mL throughout. Moreover, the GI50 in the assay with NCI-H460 lung was > 1.17 ng/mL. Further, the TGI with SW-620 colon is 1.07 nM and 0.00324 µg/mL; with NCI-H23 lung it was < 0.001 µM; in the assay on HT29 colon it was 0.143 µM; with OVCAR-4 ovarian, < 0.001 µM; in the assay with HCC-2998 colon, < 0.001 µM; in the assay on CCRF-CEM leukemia, 0.0682 µM. The TGI in the assay with NCI-H460 lung and in the assay on U251 CNS was < 0.001 µM in each case.
